In patent publication US20240368174A1, “Antiviral Heterocyclic Compounds” (Enanta Pharmaceuticals, Inc., priority 2023, published 2024):

System: genotype A, “Long” strain RSV
Assay: RSV-A assay (CPE, ATPlite readout in Hep-2 cells)
Assay type: cell-based, Human respiratory syncytial virus
Details: activity class
Text: Hep-2 cells, (originally derived from tumors grown in irradiated-cortisonised weanling rats that had been injected with epidermoid carcinoma tissue from the larynx of a person, but later found to be indistinguishable from HeLa cells by PCR DNA analysis), were used for the culturing of genotype A, “Long” strain RSV. Flasks were inoculated with RSV and viral stocks were collected once cytopathic effect (CPE) was greater than 90%. Viral stocks in 25% sucrose media were snap frozen using liquid nitrogen to increase viral stability. Viral stock titers were quantified by tissue culture infectious dose 50% (TCID50) using 8,000 cells per well and 3-fold viral dilutions across a 96-well plate, cultured for 4 days. Viral stock titers were also quantified by a plaque forming unit assay, as described elsewhere.
Following extensive parameter testing, the final assay is run as follows: Hep-2 cells are seeded into the inner 60 wells of a 96-well plate at 8,000 cells per well in a volume of 50 μL using Growth Media (DMEM without phenol red, 1% L-Glut, 1% Penn/Strep, 1% nonessential amino acids, 10% heat-inactivated FBS). 2-fold serial dilutions of control and test compounds are added to the wells in duplicate in a total volume of 25 μL. Viral stock is then added to the wells at a multiplicity of infection (MOI) of 0.1 in a volume of 25 μL, bringing the total volume of each well to 100 μL. The MOI is calculated using the PFU/mL, or TCID50 if unavailable. Each 96-well plate has a control column of 6 wells with cells and virus but no compound (negative control, max CPE), a column with cells but no compound or virus (positive control, minimum CPE), and a column with no cells or virus or compound (background plate/reagent control). The control wells with cells but no virus are given an additional 25 μL of growth media containing an equal quantity of sucrose as those wells receiving the viral stock in order to keep consistent in media and volume conditions. The outer wells of the plate are filled with 125 μL of moat media (DMEM, 1% Penn/Strep) to act as a thermal and evaporative moat around the test wells. Following a 5-day incubation period, the plates are read using ATPlite (50 uL added per well), which quantifies the amount of ATP (a measure of cell health) present in each well. Assay plates are read using the Envision luminometer. […] EC50 ranges are as follows: A<0.2 μM; B>0.2 μM.

[1] = human respiratory syncytial virus

Row | SMILES | EC50 [1] [nM] | EC50 [nM]
1 | COc1cc(C(=O)NC[C@](O)(c2cc3c(c(-c4ccnc5c4ccn5C)n2)OC[C@]3(C)C(N)=O)C2CC2)cc2cn(C3CC3)nc12 [Example 420] | < 200 | 
2 | COc1cc(C(=O)NC[C@](O)(c2cc3c(c(-c4ccnc(Cl)c4Cl)n2)OC[C@]3(C)C(N)=O)C2CC2)cc2cn(C(F)F)nc12 [Example 422] | < 200 | 
3 | COc1cc(C(=O)NC[C@](O)(c2cc3c(c(-c4cncc(Cl)c4Cl)n2)OC[C@]3(C)C(N)=O)C2CC2)cc2cn(C3CC3)nc12 [Example 740] | < 200 | 
4 | COc1cc(C(=O)NC[C@](O)(c2cc3c(c(-c4cc[nH]c(=O)c4Cl)n2)OC[C@]3(C)C(N)=O)C2CC2)cc2cn(C3CC3)nc12 [Example 436] | > 200 | 
5 | COc1cc(C(=O)NC[C@](O)(c2cc3c(c(-n4ccc5ccccc54)n2)OC[C@]3(C)C(N)=O)C2CC2)cc2cn(C3(F)CC3)nc12 [Example 741] | < 200 | 
6 | COc1cc(C(=O)NC[C@](O)(c2cc3c(c(-c4cccc(F)c4Cl)n2)OC[C@]3(C)C(N)=O)C2CC2)cc2oc(C3CC3)nc12 [Example 616] | < 200 | 
7 | COc1cc(C(=O)NC[C@](O)(c2cc3c(c(-c4ccnc(Cl)c4Cl)n2)OC[C@]3(C)C(N)=O)C2CC2)cc2cn(C(F)F)nc12 [Example 732] |  | < 200
8 | COc1cc(C(=O)NC[C@](O)(c2cc3c(c(-c4cc(C(F)(F)F)ncc4F)n2)OC[C@]3(C)C(N)=O)C(F)(F)F)cc2cn(C(F)F)nc12 [Example 424] | < 200 | 
9 | COc1cc(C(=O)NC[C@](O)(c2cc3c(c(-c4cc(C(F)(F)F)ncc4F)n2)OC[C@]3(C)C(N)=O)C2(F)CC2)cc2cn(C3CC3)nc12 [Example 458] | < 200 | 
10 | COc1cc(C(=O)NC[C@](O)(c2cc3c(c(-c4cc(C(F)(F)F)ncc4F)n2)OC[C@]3(C)C(N)=O)C(F)(F)F)cc2cn(C3CC3)nc12 [Example 425] | < 200 | 
11 | COc1cc(C(=O)NC[C@](O)(c2cc3c(c(-c4ccnc(C(F)(F)F)c4Cl)n2)OC[C@]3(C)C(N)=O)C2CC2)cc2cn(C3CC3)nc12 [Example 419] | < 200 | 
12 | COc1cc(C(=O)NC[C@](O)(c2cc3c(c(-n4ccc5cccc(F)c54)n2)OC[C@]3(C)C(N)=O)C2CC2)cc2cn(C3CC3)nc12 [Example 455] | < 200 | 
13 | COc1cc(C(=O)NC[C@](O)(c2cc3c(c(-n4ccc5c(F)cccc54)n2)OC[C@]3(C)C(N)=O)C2CC2)cc2cn(C3CC3)nc12 [Example 452] | < 200 | 
14 | COc1cc(C(=O)NC[C@](O)(c2cc3c(c(-n4ccc5ccccc54)n2)OC[C@]3(C)C(N)=O)C2CC2)cc2cn(C(F)F)nc12 [Example 445] | < 200 | 
15 | COc1cc(C(=O)NC[C@](O)(c2cc3c(c(-n4ccc5c(F)cccc54)n2)OC[C@]3(C)C(N)=O)C(F)(F)F)cc2cn(C(F)F)nc12 [Example 684] | < 200 | 
16 | COc1cc(C(=O)NC[C@](O)(c2cc3c(c(-c4ccnc(C)c4Cl)n2)OC[C@]3(C)C(N)=O)C2CC2)cc2cc(Cl)c(C)nc12 [Example 675] | < 200 | 
17 | COc1cc(C(=O)NC[C@@](O)(c2cc(F)nc(F)c2)c2cc3c(c(-c4cccc(Cl)c4Cl)n2)OC[C@]3(C)C(N)=O)cc2cn(C3CC3)nc12 [Example 575] | < 200 | 
18 | COc1cc(C(=O)NC[C@](O)(c2cc3c(c(-c4ccnc(C)c4Cl)n2)OC[C@]3(C)C(N)=O)C2CC2)cc2cn(C3(F)CC3)nc12 [Example 754] | < 200 | 
19 | COc1cc(C(=O)NC[C@](O)(c2cc3c(c(-c4cccc(F)c4Cl)n2)OC[C@]3(C)C(N)=O)C2CC2)cc2cn(C(F)F)nc12 [Example 614] | < 200 | 
20 | COc1cc(C(=O)NC[C@](O)(c2cc3c(c(-c4cc(C(F)(F)F)ncc4F)n2)OC[C@]3(C)C(N)=O)C2(F)CC2)cc2cc(C3CC3)nn12 [Example 462] | < 200 | 
21 | COc1cc(C(=O)NC[C@](O)(c2cc3c(c(-n4ccc5ccc(F)cc54)n2)OC[C@]3(C)C(N)=O)C(F)(F)F)cc2cn(C3CC3)nc12 [Example 853] | < 200 | 
22 | COc1cc(C(=O)NC[C@](O)(c2cc3c(c(-c4ccnc(OC(F)F)c4Cl)n2)OC[C@]3(C)C(N)=O)C2CC2)cc2cn(C3CC3)nc12 [Example 438] | < 200 | 
23 | COc1cc(C(=O)NC[C@@](O)(c2cc3c(c(-c4ccnc(Cl)c4Cl)n2)OC[C@]3(C)C(N)=O)C2CC2)cc2cn(C(F)F)nc12 [Example 733] | < 200 | 
24 | COc1cc(C(=O)NC[C@](O)(c2cc3c(c(-n4ccc5ccccc54)n2)OC[C@]3(C)C(N)=O)C2CC2)cc2oc(C3CC3)nc12 [Example 748] | < 200 | 
25 | COc1cc(C(=O)NC[C@](O)(c2cc3c(c(-c4ccnc(C(F)(F)F)c4Cl)n2)OC[C@]3(C)C(N)=O)C2(F)CC2)cc2cn(C3CC3)nc12 [Example 784] | < 200 | 
26 | COc1cc(C(=O)NC[C@](O)(c2cc3c(c(-c4ccnc(Cl)c4Cl)n2)OC[C@]3(C)C(N)=O)C2CC2)cc2cn(C3(F)CC3)nc12 [Example 441] | < 200 | 

Continued, values first:

Row | EC50 [1] [nM] | EC50 [nM] | SMILES
27 | < 200 |  | COc1cc(C(=O)NC[C@](O)(c2cc3c(c(-n4ccc5c(F)cccc54)n2)OC[C@]3(C)C(N)=O)C(F)(F)F)cc2cc(C3CC3)nn12 [Example 686]
28 | < 200 |  | COc1cc(C(=O)NC[C@](O)(c2cc3c(c(-n4ncc5c(F)cccc54)n2)OC[C@]3(C)C(N)=O)C(F)(F)F)cc2cn(C3CC3)nc12 [Example 830]
29 | < 200 |  | C[C@]1(C(N)=O)COc2c1cc([C@@](O)(CNC(=O)c1cc(OCCO)c3nn(C4CC4)cc3c1)C1CC1)nc2-c1ccc(F)c(F)c1Cl [Example 676]
30 | < 200 |  | COc1cc(C(=O)NC[C@](O)(c2cc3c(c(-c4cncc(Cl)c4Cl)n2)OC[C@]3(C)C(N)=O)C2CC2)cc2cn(C3(F)CC3)nc12 [Example 773]
31 | < 200 |  | COc1cc(C(=O)NC[C@](O)(c2cc3c(c(-c4ccnc(C)c4Cl)n2)OC[C@]3(C)C(N)=O)C2CC2)cc2cn(C(F)F)nc12 [Example 753]
32 | < 200 |  | COc1cc(C(=O)NC[C@](O)(c2cc3c(c(-c4cc(C(F)(F)F)ncc4F)n2)OC[C@]3(C)C(N)=O)C2(F)CC2)cc2cn(C(F)F)nc12 [Example 460]
33 | < 200 |  | COc1cc(C(=O)NC[C@@](O)(c2ccnc(N(C)C)c2)c2cc3c(c(-c4cc(Cl)c(F)cc4F)n2)OC[C@]3(C)C(N)=O)cc2cn(C3CC3)nc12 [Example 884]
34 | < 200 |  | COc1cc(C(=O)NC[C@](O)(c2cc3c(c(-c4ccnc(C)c4Cl)n2)OC[C@]3(C)C(N)=O)C2CC2)cc2cc(C3CC3)nn12 [Example 673]
35 | < 200 |  | C[C@]1(C(N)=O)COc2c1cc([C@@](O)(CNC(=O)c1cc(OCCO)c3nn(C4CC4)cc3c1)C1CC1)nc2-c1ccc(F)c(Cl)c1Cl [Example 677]
36 | < 200 |  | COc1cc(C(=O)NC[C@](O)(c2cc3c(c(-n4ccc5ccc(F)cc54)n2)OC[C@]3(C)C(N)=O)C2CC2)cc2cn(C3CC3)nc12 [Example 454]
37 | < 200 |  | Cc1nccc(-c2nc([C@@](O)(CNC(=O)c3cc(Cl)c4nn(C5CC5)cc4c3)C3CC3)cc3c2OC[C@]3(C)C(N)=O)c1Cl [Example 674]
38 | < 200 |  | COc1cc(C(=O)NC[C@](O)(c2cc3c(c(-c4cccc(OC(F)F)c4Cl)n2)OC[C@]3(C)C(N)=O)C2CC2)cc2cn(C3CC3)nc12 [Example 439]
39 | < 200 |  | COc1cc(C(=O)NC[C@](O)(c2cc3c(c(-c4ccnc(C)c4Cl)n2)OC[C@]3(C)C(N)=O)C2CC2)cc2oc(C3CC3)nc12 [Example 755]
40 | < 200 |  | COc1cc(C(=O)NC[C@](O)(c2cc3c(c(-c4cc(C(F)F)ncc4Cl)n2)OC[C@]3(C)C(N)=O)C2CC2)cc2cn(C3CC3)nc12 [Example 437]
41 | < 200 |  | COc1cc(C(=O)NC[C@](O)(c2cc3c(c(-c4ccnc(C)c4Cl)n2)OC[C@]3(C)C(N)=O)C2CC2)cn2cc(C3CC3)nc12 [Example 672]
42 | < 200 |  | COc1cc(C(=O)NC[C@](O)(c2cc3c(c(-n4nnc5ccccc54)n2)OC[C@]3(C)C(N)=O)C2CC2)cc2cn(C3CC3)nc12 [Example 450]
43 | < 200 |  | COc1cc(C(=O)NC[C@](O)(c2cc3c(c(-c4ccnc5c4CCC5)n2)OC[C@]3(C)C(N)=O)C2CC2)cc2cn(C3CC3)nc12 [Example 421]
44 | < 200 |  | COc1cc(C(=O)NC[C@](O)(c2cc3c(c(-n4nc(Cl)c5ccccc54)n2)OC[C@]3(C)C(N)=O)C2CC2)cc2cn(C3CC3)nc12 [Example 451]
45 | < 200 |  | COc1cc(C(=O)NC[C@](O)(c2cc3c(c(-n4ccc5cccc(F)c54)n2)OC[C@]3(C)C(N)=O)C(F)(F)F)cc2cn(C3CC3)nc12 [Example 854]
46 | < 200 |  | COc1cc(C(=O)NC[C@](O)(c2cc3c(c(-c4cccc(OC(F)(F)F)c4Cl)n2)OC[C@]3(C)C(N)=O)C2CC2)cc2cn(C3CC3)nc12 [Example 440]
47 | < 200 |  | COc1cc(C(=O)NC[C@](O)(c2cc3c(c(-c4cncc(Cl)c4Cl)n2)OC[C@]3(C)C(N)=O)C2CC2)cc2cn(C(F)F)nc12 [Example 772]
